# Measured values: patent publication US8163709B2, “TAK1-D mediated induction of cell death in human cancer cells by specific sequence short double-stranded RNAS” (Board of Regents of the University of Texas System, priority 2008, dated 2012)
# Entries after “also recorded” stand apart in the source; their conditions may differ.
# How the values were obtained:
# TAK1-A = assay: Autophosphorylation of the other (long) Tak1 splicing variants in H460 cells; assay type: cell-based, human; conditions: siRNA 20 nM
# Excerpt: In contrast only the long form (TAK1-A) is able to activate the NFκB pathway through phosphorylation of IKKα/β.
# cdc25A = cdc25A phosphorylation in nuclei of NCI-H460 cells; assay type: cell-based, human; conditions: 2 h
# Excerpt: P38 MAPK as well as SPK/JNK have a large number of downstream targets. Amongst these, the phosphorylation of the cell cycle control phosphatase cdc25 (Bulavin et al., 2001; Goss et al., 2003) are of particular interest, as these phosphorylations have the potential to transduce an immediate and direct effect of TAK1-D activation to the cell cycle. […] In contrast, both cdc25A and cdc25B were found in the nucleus and therefore capable of cell cycle control. […] The occurrence of this shifted form of cdc25A is indicative of phosphorylation and inactivation of cdc25A (Zhao et al., 2002). The amount of cdc25B in the nucleus decreases with kinetics similar to the phosphorylation of cdc25A, indicative for a phosphorylation dependent translocation and proteolytic digestion of cdc25B (Cans et al., 1999). Therefore, it can be concluded that activation of TAK1-D in NCI-H460 cells leads to an inactivation of cdc25A and cdc25B through p38 MAPK and SAPK/JNK mediated phosphorylation and proteolytic destruction.
# H460 cells [1] = assay: BrdU pulse labeling and flow cytometry of H460 cells; assay type: cell-based, human
# Method: FIGS. 10A-D: Reaction of NCI-H460 cells to activation of p38 MAPK and SAPK/JNK. (FIG. 10A) BrdU labeling was used to determine the amount of NCI-H460 cells in the S phase of the cell cycle. Cells were pulse labeled with 100 μM BrdU for 15 minutes (0 and 4 h) or 10 μM for 1 h (24 h). Dot blots show DNA content versus BrdU signal. The number of S phase cells decreases within a few hours after treatment of cells with siRNA si5. (FIG. 10B) Flow cytometry dot blots, showing the cellular DNA content versus the amount of cleaved Caspase 3. Within 24 h after exposure to siRNA si5 cells in G1 as well as in the S phase of the cell cycle show Caspase 3 activation. (FIG. 10C) Activation of Caspase 3 leads to PARP cleavage and to (FIG. 10D) nuclear chromatin condensation visible in Hoechst 33342 stained NCI-H460 cells, typical of apoptosis.
# To test this hypothesis, H460 cells were pulse labeled with BrdU for 15 min at various time points after treatment with siRNA si5 and analyzed by flow cytometry immediately afterwards. […] In particular, it can be seen that the fraction of cells in the S phase of the cell cycle drops from 48% in untreated cells to 27% 4 h after incubating the cells with 20 nM siRNA si5.
# H460 cells [2] = assay: Apoptosis in H460 cells (caspase 3 cleavage, PARP cleavage, nuclear morphology); assay type: cell-based, human
# Excerpt: Cell cycle arrest triggers programmed cell death in many tumor cell lines.
# As cell cycle arrest is incompatible with survival in many tumor cell lines the cellular response of H460 cells to the treatment with dsRNA si5 was investigated.
# Survival assay and apoptosis scoring.
# p38 MAPK = p38 MAPK cascade activation in HCC2279 cells (Western blot); assay type: cell-based, human
# Excerpt: A possible application for the above mentioned findings in cancer therapy requires data on the effects of dsRNA mediated activation of Tak1-D in other tumors and in normal tissues. To test whether dsRNA mediated cell killing also occurs in other tumor cell lines, the NSCLC cell line HCC2279 was chosen. This cell line originated from an adenocarcinoma and was initially described by Wistuba et al. (1999).
# [3] = system: normal human skin fibroblasts; assay: Crystal Violet staining of normal human skin fibroblasts; assay type: cell-based; conditions: up to 20 nM, 48 h
# Method: In order to obtain preliminary data describing the response of normal tissue cells to dsRNA mediated Tak1-D activation normal human fibroblasts as well as human bronchial epithelial cells (HBEC) were plated into 12-well multiwell plates, treated with siRNA si5 or si6 in different concentrations and stained with Crystal Violet 48 h later. […] […].
# H460 xenograft tumors [4] = assay: H460 xenograft tumor growth after intratumoral injection; assay type: in vivo
# Method: In order to test whether the proposed treatment approach for NSCLC using dsRNA-mediated activation of TAK1-D is feasible in vivo H460 xenograft tumors grown in athymic NCr nu/nu mice were treated with by intratumoral injection of a liposomal dsRNA preparation. About 10 days after subcutaneous injection of […] H460 cells into the left hind leg of the animals tumors had reached a volume of about 300 μl and were injected with 50 μl of liposomal control RNA or active RNA si5. Liposomes consisting of DOTAP and Cholesterol (1:1) were prepared by sonication and extrusion. RNA was bound to the polycation protamine and liposome/polycation/RNA nanoparticles were prepared by mixing the protamine RNA complex with the liposomes. Finally 4 μg of RNA were injected in a volume of 50 μl on day 0 and 1. […].
# H460 xenograft tumors [5] = assay: Immunohistochemistry for cleaved Caspase-3 in H460 xenograft tumors; assay type: in vivo, mice; conditions: 16 hours after intratumoral injection
# Method: To gain an insight into the mechanisms of dsRNA si5-induced growth delay in H460 xenograft tumors shown in FIG. 26, the tumors were analyzed by immunohistochemical staining for apoptotic activation of Caspase-3. Two tumors with a volume of about 500 μl were injected with a liposomal preparation of active and control dsRNA as described above. Sixteen hours after injection mice were sacrificed and the tumors were fixed in formaldehyde. After paraffin embedding 5 μm sections were cut from the central region of the tumor. The sections were stained immunohistochemically using a primary antibody against cleaved Caspase-3. The primary antibody was detected using a biotinylated secondary antibody and an peroxidase ABC-Kit (Vector Laboratories). Diaminobenzidine (DAB) was used as a substrate for immunohistochemical detection and the slides were counterstained with Hematoxylin.
substance,measurement,setting,value
si5: 21-mer siRNA against TLK1 mRNA: GGCUUUUGACCUUUAUGAAtt (SEQ ID NO: 2) / ttCCGAAAACUGGAAAUACUU (SEQ ID NO: 3) (sense GGCUUUUGACCUUUAUGAATT; antisense TTCCGAAAACUGGAAAUACUU; chemistry not given here; one strand is listed 3' to 5'),activating autophosphorylation of the other three splicing variants of Tak1,TAK1-A,does not induce activating autophosphorylation
same,phosphorylation of nuclear cdc25A (intensity of the upper band),cdc25A,increases in intensity within 2 h; also recorded: increased phosphorylation as early as 2 h
same,fraction of cells in the S phase of the cell cycle,"H460 cells [1]; H460, 4 h after 20 nM, untreated cells 48%",27%
same,DNA synthesis,"H460 cells [1]; H460, 24 h after treatment",ceased almost completely
same,cell cycle arrest,"H460 cells [1]; NCI-H460, first 24 h","arrest of NCI-H460 cells in the G1, S, and G2 phase of the cell cycle"
same,cellular apoptotic response with inactivated Tak1-D catalytic activity,"H460 cells [2]; H460, adenoviral K63W, 48 h after siRNA",significantly reduced
same,"nuclear morphology, HOECHST 33342 staining","H460 cells [2]; H460 cells, 48 h",typical apoptotic chromatin condensation and fragmentation
same,time until PARP cleavage,"H460 cells [2]; H460 cells, Western blot",≤ 24 h
same,caspase 3 cleavage,"H460 cells [2]; NCI-H460, 24 h after treatment",cells from the G1 and the S phase of the cell cycle show caspase 3 cleavage
same,fraction of G1 and S phase cells staining positive for cleaved caspase 3,"H460 cells [2]; NCI-H460, 48 h, compared with 24 h",higher
same,activation of p38 MAPK,p38 MAPK,activate p38 MAPK
same,growth inhibitory or cytotoxic effect,[3],no growth inhibitory or cytotoxic effect could be observed; also recorded: no cytotoxicity or growth delay
same,normal tissue toxicity (necrosis of skin or tumor vascular system),H460 xenograft tumors [4]; intratumoral liposomal preparation,no sign of normal tissue toxicity
same,tumor growth kinetics,"H460 xenograft tumors [4]; intratumoral, liposome (DOTAP:Cholesterol)/protamine/RNA nanoparticles, 4 μg RNA day 0 and 1",tumor growth delay
same,apoptotic activation of Caspase-3 (DAB staining),H460 xenograft tumors [5],visible in many cells
